Measured values taken from ChEMBL document CHEMBL4393652, “Development of Isoselenocyanate Compounds' Syntheses and Biological Applications” (2019).

Tested on: UACC-903
Assay: Antitumor activity against human UACC-903 cells xenografted in Nude-Foxn1nu mouse assessed as reduction in tumor size after 24 hrs relative to control
Assay type: functional
Design: scale not given: the % may be the effect or the level left

SMILES: [Se]=C=NCCCCc1ccccc1 [PHENYLBUTYL ISOSELENOCYANATE]
- Activity: 77%
